{"source": "BindingDB's records for PubMed 37866336", "about": "(The First Affiliated Hospital of China Medical University)", "key": {"[1]": {"biological_target": "Melatonin receptor type 1A (Homo sapiens, UniProt P48039)", "sequence (P48039 whole entry)": "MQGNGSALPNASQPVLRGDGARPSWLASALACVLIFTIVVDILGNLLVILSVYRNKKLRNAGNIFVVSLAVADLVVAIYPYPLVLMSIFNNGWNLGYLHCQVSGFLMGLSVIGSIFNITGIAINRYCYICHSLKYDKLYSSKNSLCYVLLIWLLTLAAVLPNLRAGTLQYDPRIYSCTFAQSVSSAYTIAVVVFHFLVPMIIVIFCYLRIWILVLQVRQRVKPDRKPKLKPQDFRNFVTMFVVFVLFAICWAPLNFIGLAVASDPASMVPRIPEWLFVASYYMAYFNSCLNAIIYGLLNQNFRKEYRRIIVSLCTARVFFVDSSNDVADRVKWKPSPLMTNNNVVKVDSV", "assay": "Binding affinity to human MT1 receptor expressed in CHO cells assessed as inhibition constant by HTRF method"}, "[2]": {"biological_target": "T1, Melatonin receptor type 1B (Homo sapiens, UniProt P49286)", "T1 sequence (P49286 whole entry)": "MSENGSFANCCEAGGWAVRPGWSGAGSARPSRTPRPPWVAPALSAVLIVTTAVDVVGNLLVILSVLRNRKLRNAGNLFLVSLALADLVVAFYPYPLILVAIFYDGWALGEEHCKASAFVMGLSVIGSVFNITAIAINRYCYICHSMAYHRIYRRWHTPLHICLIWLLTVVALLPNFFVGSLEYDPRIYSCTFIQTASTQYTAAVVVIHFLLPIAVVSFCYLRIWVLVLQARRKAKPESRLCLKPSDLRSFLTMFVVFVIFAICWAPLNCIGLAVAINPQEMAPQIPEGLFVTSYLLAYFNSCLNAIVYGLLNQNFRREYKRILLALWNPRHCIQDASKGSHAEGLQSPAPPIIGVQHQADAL", "assay": "Binding affinity to human MT2 receptor expressed in CHO cells assessed as inhibition constant by HTRF method"}}, "note": "pKi: −log10 of the molar value.", "data": [{"smiles": "CCCn1c(NC(=O)Cc2coc3cc(OC)ccc23)nc2ccccc21", "note": "[Name not given]", "values": [{"measurement": "pKi", "setting": "[1]", "value": 7.44}]}, {"smiles": "N#CN1CC[C@@H](NC(=O)c2ccc(-c3cnc4nccn4c3)cc2F)C1", "note": "[Name not given]", "values": [{"measurement": "pKi", "setting": "[2]", "value": 7.44}]}]}
